Key:
[1] = Use as a growth factor in weaned piglets (Example 5); assay type: in vivo, weaned Large-White Belgian Landrace crossed piglets; conditions: for Weight gain / Consumption / Intermediate Weight / Initial weight / Index of consumption: 40 ppm in feed; for Initial weight: start of period 14-28 days; for Index of consumption: consumption/weight gain ratio
[2] = Use as a growth factor in piglets (Example 6); assay type: in vivo, weaned Large-White Belgian Landrace crossed piglets; conditions: 40 ppm in feed; for Final weight: control 24.7
Description: 130 weaned Large-White Belgian Landrace crossed piglets were used. The experiment began 2 weeks after weaning of the animals, i.e. at a mean age of 42 days.
The animals received the experimental feed ad libitum in the form of granules 2.5 mm in diameter.
The animals were weighed at the beginning, middle and end of the experiment. The consumptions were noted every week.
Tables 7, 8 and 9 respectively show the percentage composition and the characteristics of the diets, the percentage composition of the CMV and the percentage composition of the premixes.
The results are shown in Table 10 for the period 0-14 days, Table 11 for the period 14-28 days and Table 12 for the period 0-28 days.

[3] = Table 4, 0-14 days, control 15.3
[4] = Table 5, 14-28 days, control 23.1
[5] = Table 6, 0-28 days, control 23.1

## spiramycin embonate [reference compound]
[1]; 0-14 days, control 329
  Weight gain: 393 g/day
[1]; 0-14 days, control 614
  Consumption: 668 g/day
[1]; 0-28 days, control 445
  Weight gain: 518 g/day
[1]; 0-28 days, control 822
  Consumption: 908 g/day
[1]; 14-28 days, control 560
  Weight gain: 647 g/day
[1]; 14-28 days, control 1031
  Consumption: 1147 g/day
[1]; [3]
  Intermediate Weight: 16.3 kg
[1]; [4]
  Intermediate Weight: 25.4 kg
[1]; [5]
  Intermediate Weight: 25.4 kg
[1]; control 15.3
  Initial weight: 16.3 kg
[1]; 0-14 days, control 1.88
  Index of consumption: 1.72
[1]; 0-28 days, control 1.85
  Index of consumption: 1.75
[1]; 14-28 days, control 1.86
  Index of consumption: 1.79
[1]; first period 0-14 days
  effect on consumption (in words): increase in consumption
[1]; overall period 0-28 days
  effect on consumption (in words): significantly increased
[1]; overall period 0-28 days, relative to basic diet
  effect on growth (in words): significantly increased
[1]; second period 14-28 days
  effect on growth (in words): significantly improved
[2]; 0-14 days, control 1.76
  Index of consumption: 1.70
[2]; 0-14 days, control 368
  Weight gain: 423 g/day
[2]; 0-14 days, control 645
  Consumption: 715 g/day
[2]; 0-28 days, control 1.80
  Index of consumption: 1.73
[2]; 0-28 days, control 474
  Weight gain: 532 g/day
[2]; 0-28 days, control 852
  Consumption: 923 g/day
[2]; 14-28 days, control 1.84
  Index of consumption: 1.77
[2]; 14-28 days, control 579
  Weight gain: 640 g/day
[2]; 14-28 days, control 1059
  Consumption: 1130 g/day
[2]; Table 11, 14-28 days
  Final weight: 26.3 kg
[2]; Table 12, 0-28 days
  Final weight: 26.3 kg

## CC[C@H]1OC(=O)C[C@@H](O)[C@H](C)[C@@H](O[C@@H]2O[C@H](C)[C@@H](O[C@H]3C[C@@](C)(O)[C@@H](O)[C@H](C)O3)[C@H](N(C)C)[C@H]2O)[C@@H](CC=O)C[C@@H](C)C(=O)/C=C/C(C)=C/[C@@H]1CO[C@@H]1O[C@H](C)[C@@H](O)[C@@H](OC)[C@H]1OC [tylosin, reference compound]
[1]; 0-14 days, control 329
  Weight gain: 351 g/day
[1]; 0-14 days, control 614
  Consumption: 619 g/day
[1]; 0-28 days, control 445
  Weight gain: 470 g/day
[1]; 0-28 days, control 822
  Consumption: 826 g/day
[1]; 14-28 days, control 560
  Weight gain: 588 g/day
[1]; 14-28 days, control 1031
  Consumption: 1033 g/day
[1]; [3]
  Intermediate Weight: 15.6 kg
[1]; [4]
  Intermediate Weight: 23.8 kg
[1]; [5]
  Intermediate Weight: 23.8 kg
[1]; control 15.3
  Initial weight: 15.6 kg
[1]; 0-14 days, control 1.88
  Index of consumption: 1.79
[1]; 0-28 days, control 1.85
  Index of consumption: 1.76
[1]; 14-28 days, control 1.86
  Index of consumption: 1.76

Source: patent US5254533A, “Elfamycin” (Rhone-Poulenc Rorer S.A., priority 1990, dated 1993)
